From patent US10751301B2, “Methods for inhibiting conversion of choline to trimethylamine (TMA)” (The Procter & Gamble Company, priority 2017, dated 2020)
Read-outs that look alike come from different tables or passages of the source.

What was measured:
[1] = system: Proteus mirabilis 29906 (Pm) lysate; test: Inhibition of formation of TMA from choline in Proteus mirabilis lysate (Example 2); type: biochemical; details: read-out: TMA Inhibition (IC50, mol/L)
[2] = system: human fecal polymicrobial community; test: Human fecal polymicrobial incubation with d9-choline, TMA inhibition (Example 3); type: cell-based
mice (C57b1/6) = test: Preclinical screening method, plasma TMAO in mice on 1% choline added diet (Example 4); type: in vivo; details: oral gavage once daily, 310 mg/kg/day
[3] = target: recombinant P. mirabilis Cut C/D lysate (Proteus mirabilis, UniProt B4EYG1); test: biochemical
[4] = target: recombinant D. alaskensis Cut C/D lysate (Oleidesulfovibrio alaskensis, UniProt Q30W70); test: biochemical
[5] = system: whole cell wild-type P. mirabilis; test: Inhibition of conversion of choline to TMA by whole cell wild-type P. mirabilis (Example 5); type: cell-based
C57b1/6 female mice = test: Rapid preclinical method, d9-choline challenge in mice (Example 6); type: in vivo; details: for Calculated EC50 (mg/kg) compared to Vehicle Control: mice, oral gavage with 2 mg d9-Choline, Time 3 hr
[6] = system: fecal polymicrobial community; details: male, human
[7] = Pm lysate 1.5 mg/mL protein, 50 μM d9-choline chloride, 37° C. two hours
[8] = Homo sapiens, 0.2% fecal slurry, 50 μM d9-choline chloride, 20 hours, 37° C., anaerobic, ND=not detectable, read-out: Example 3, TMA Inhibition (IC50, mol/L)
[9] = Proteus mirabilis; read-out: EC50 (mol/L) whole cell wild-type P. mirabilis

Sequence of recombinant D. alaskensis Cut C/D lysate (Q30W70 whole entry): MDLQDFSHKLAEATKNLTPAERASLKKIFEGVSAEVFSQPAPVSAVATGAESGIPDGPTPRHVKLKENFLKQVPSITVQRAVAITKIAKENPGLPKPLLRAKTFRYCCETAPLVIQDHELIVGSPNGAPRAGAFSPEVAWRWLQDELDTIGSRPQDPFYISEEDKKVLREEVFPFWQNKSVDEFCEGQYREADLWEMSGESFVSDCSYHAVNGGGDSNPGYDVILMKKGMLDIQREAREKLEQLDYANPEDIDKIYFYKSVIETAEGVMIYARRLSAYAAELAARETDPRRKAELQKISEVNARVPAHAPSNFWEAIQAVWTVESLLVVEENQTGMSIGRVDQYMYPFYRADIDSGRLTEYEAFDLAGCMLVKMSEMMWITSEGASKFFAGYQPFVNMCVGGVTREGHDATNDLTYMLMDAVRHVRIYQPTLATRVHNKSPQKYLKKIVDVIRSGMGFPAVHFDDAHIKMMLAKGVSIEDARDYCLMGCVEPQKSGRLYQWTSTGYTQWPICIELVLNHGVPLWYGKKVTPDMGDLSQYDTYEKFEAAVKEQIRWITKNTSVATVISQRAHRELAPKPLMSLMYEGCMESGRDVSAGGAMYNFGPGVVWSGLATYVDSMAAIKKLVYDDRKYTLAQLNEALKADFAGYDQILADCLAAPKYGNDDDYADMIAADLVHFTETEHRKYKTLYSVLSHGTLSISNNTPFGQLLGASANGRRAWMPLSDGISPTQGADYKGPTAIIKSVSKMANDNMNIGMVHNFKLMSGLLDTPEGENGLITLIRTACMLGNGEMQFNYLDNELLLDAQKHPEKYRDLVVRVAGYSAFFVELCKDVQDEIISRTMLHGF

C[S+](CCO)c1ccccc1 (stereo not shown) [compound 16, Phenyl-(2-hydroxyethyl)-methyl-sulfonium]
IC50 [1, 7]: 302 µM
IC50 [2, 8]: 1.64 µM

C=C(C)C[S+](C)CCO (stereo not shown) [compound 9, 2-hydroxyethyl-methyl-(2-methylallyl)sulfonium]
IC50 [1, 7]: 166 µM

C/C=C/C[S+](C)CCO (stereo not shown) [ID 8, [(E)-but-2-enyl]-(2-hydroxyethyl)-methyl-sulfonium]
Remaining plasma TMAO as a percentage of plasma TMAO in same day vehicle control (% of control remaining) (mice (C57b1/6); Days 1): 62%
IC50 [3]: 1.5 µM
IC50 [4]: 0.27 µM
EC50 [5, 9]: 9.5 µM

C=CC[S+]([O-])CCO (stereo not shown) [compound 22, Allyl-(2-hydroxyethyl)-oxido-sulfonium]
IC50 [1, 7]: 3.8 µM
IC50 [2, 8]: 101 µM

C#CC[S+](C)C [ID 20, Dimethyl(prop-2-ynyl)sulfonium]
Remaining plasma TMAO as a percentage of plasma TMAO in same day vehicle control (% of control remaining) (mice (C57b1/6); Days 1): 0.35%
IC50 [3]: 0.013 µM
IC50 [4]: 0.068 µM
EC50 [5, 9]: 75 µM
Calculated EC50 (mg/kg) compared to Vehicle Control (C57b1/6 female mice): 9.00 mg/kg

CC[S+](C)CCO.[I-] (stereo not shown) [Methylethylthioethanol iodide]
IC50 ([2]; Homo sapiens, read-out: IC50, inhibits the conversion of choline to TMA, assay of Example 3): 8.89 µM
EC50, inhibits the conversion of choline to TMA, assay of EXAMPLE 6 (C57b1/6 female mice; time not given): 0.8 mg/kg

C=CC[S+](C)C [ID 21, Allyl(dimethyl)sulfonium]
IC50 [3]: 0.25 µM
IC50 [4]: 0.41 µM
EC50 [5, 9]: 0.16 µM
Calculated EC50 (mg/kg) compared to Vehicle Control (C57b1/6 female mice): 0.19 mg/kg

C=C(C)C[S+](C)CCO (stereo not shown) [ID 9, 2-hydroxyethyl-methyl-(2-methylallyl)sulfonium]
IC50 [3]: 5.9 µM
IC50 [4]: 0.65 µM
EC50 [5, 9]: 23 µM

[O-][S+]1CCOCC1 [compound 19, 4-oxido-1,4-oxathian-4-ium]
IC50 [1]: 234 µM
IC50 ([2]; read-out: Example 3, TMA Inhibition (IC50, mol/L)): 24.3 µM

CC[S+](CCO)c1ccccc1 (stereo not shown) [compound 17, Phenyl-(2-hydroxyethyl)-ethyl-sulfonium]
IC50 [1, 7]: 190 µM
IC50 [2, 8]: 760 µM

C#CC[S+]1CCOCC1 [compound 24, 4-prop-2-ynyl-1,4-oxathian-4-ium]
IC50 [1, 7]: 55 µM

C#CC[S+](C)CCO (stereo not shown) [compound 2, Propargyl-(2-hydroxyethyl)-methyl-sulfonium]
IC50 [1, 7]: 0.038 µM
IC50 [2, 8]: 2.98 µM

C#CC[S+](C)C [compound 20]
IC50 [1, 7]: 0.01 µM
IC50 [2, 8]: 0.108 µM

C=CC[S+](C)CCO (stereo not shown) [ID 1, Allyl-(2-hydroxyethyl)-methyl-sulfonium]
Remaining plasma TMAO as a percentage of plasma TMAO in same day vehicle control (% of control remaining) (mice (C57b1/6); Days 1): 18%
IC50 [3]: 0.0982 µM
IC50 [4]: 0.307 µM
EC50 [5, 9]: 0.073 µM
Calculated EC50 (mg/kg) compared to Vehicle Control (C57b1/6 female mice): 0.87 mg/kg

C=CC[S+](C)C [compound 21]
IC50 [1, 7]: 0.0661 µM
IC50 [2, 8]: 1.46 µM

CCCCCC[S+](C)CCO (stereo not shown) [compound 4, Hexyl-(2-hydroxyethyl)-methyl-sulfonium]
IC50 [1, 7]: 58.9 µM
IC50 [2, 8]: 612 µM

CCCCC[S+](C)CCO (stereo not shown) [compound 3, Pentyl-(2-hydroxyethyl)-methyl-sulfonium]
IC50 [1, 7]: 398 µM
IC50 [2, 8]: 51.3 µM

C[S+](CI)CCO (stereo not shown) [ID 6, Iodomethyl-(2-hydroxyethyl)-methyl-sulfonium]
Remaining plasma TMAO as a percentage of plasma TMAO in same day vehicle control (% of control remaining) (mice (C57b1/6); Days 1): 3%
IC50 [3]: 0.36 µM
IC50 [4]: 3.7 µM
EC50 ([5]; Proteus mirabilis, read-out: EC50 (mol/L) whole cell wild-type P. mirabilis): 0.2 µM
Calculated EC50 (mg/kg) compared to Vehicle Control (C57b1/6 female mice): 1.10 mg/kg

C[S+](CCO)CCBr (stereo not shown) [compound 11, (2-bromoethyl)(2-hydroxyethyl)methylsulfonium]
IC50 [1]: 0.219 µM
IC50 ([2]; Homo sapiens, 20 h, read-out: Example 3, TMA Inhibition (IC50, mol/L)): 3.05 µM

C=CC[S+](C)CCO (stereo not shown) [compound 1, Allyl-(2-hydroxyethyl)-methyl-sulfonium]
IC50 [1, 7]: 0.0457 µM
IC50 [2, 8]: 41.7 µM

C=CC[S+]1CCOCC1 [compound 7, 4-allyl-1,4-oxathian-4-ium]
IC50 [1, 7]: 15.8 µM

CCCC[S+](C)CCO (stereo not shown) [compound 14, Butyl-(2-hydroxyethyl)-methyl-sulfonium]
IC50 [1, 7]: 29.5 µM
IC50 [2, 8]: 0.557 µM

[O-][S+](CCO)c1ccccc1 (stereo not shown) [compound 18, 2-hydroxyethyl-oxido-phenyl-sulfonium]
IC50 [1, 7]: 129 µM
IC50 [2, 8]: 22 µM

C[S+](CCO)Cc1ccccc1 (stereo not shown) [compound 13]
IC50 [1, 7]: 44.7 µM
IC50 [2, 8]: 12.7 µM

C[S+](CCO)CC(=O)O (stereo not shown) [ID 15, 2-Acetic acid-(2-hydroxyethyl)-methyl-sulfonium]
Remaining plasma TMAO as a percentage of plasma TMAO in same day vehicle control (% of control remaining) (mice (C57b1/6); Days 5): 69%
IC50 ([3]; read-out: IC50 (mol/L) recombinant P. mirabilis Cut C/D lysate): 0.43 µM
IC50 ([4]; read-out: IC50 (mol/L) recombinant D. alaskensis Cut C/D lysate): 0.045 µM
EC50 ([5]; read-out: EC50 (mol/L) whole cell wild-type P. mirabilis): 0.062 µM

C[S+](CI)CCO (stereo not shown) [compound 6]
IC50 [1]: 2.04 µM
Lowest concentration tested at which cell viability was 10% or lower [6]: 250 µM

OCC[S+]1CCOCC1 [compound 23, 2-(1,4-oxathian-4-ium-4-yl)ethanol]
IC50 [1]: 10.7 µM

C#CC[S+](C)CCO (stereo not shown) [ID 2, Propargyl-(2-hydroxyethyl)-methyl-sulfonium]
IC50 [3]: 0.047 µM
IC50 [4]: 0.065 µM
EC50 [5, 9]: 0.93 µM
Calculated EC50 (mg/kg) compared to Vehicle Control (C57b1/6 female mice): 85.50 mg/kg

C/C=C/C[S+](C)CCO (stereo not shown) [compound 8, [(E)-but-2-enyl]-(2-hydroxyethyl)-methyl-sulfonium]
IC50 [1, 7]: 0.0151 µM

C[S+](C/C=C/Br)CCO (stereo not shown) [compound 10, [(E)-3-bromoallyl]-(2-hydroxyethyl)-methyl-sulfonium]
IC50 [1, 7]: 0.251 µM

C#CC[S+](CCO)c1ccccc1 (stereo not shown) [compound 5, (2-hydroxyethyl)(phenyl)(prop-2-yn-1-yl)sulfonium]
IC50 [1, 7]: 200 µM
